Converted amounts (≈) assume the structure as drawn.
Tests used:
Shigella sp. = assay: Antimicrobial activity against Shigella sp. by well diffusion method; assay type: functional
Staphylococcus aureus = assay: Antimicrobial activity against Staphylococcus aureus by well diffusion method; assay type: functional
Candida albicans = assay: Antimicrobial activity against Candida albicans by poison food technique; assay type: functional
Streptococcus pneumoniae = assay: Antimicrobial activity against Streptococcus pneumoniae by well diffusion method; assay type: functional
Trichoderma = assay: Antimicrobial activity against Trichoderma sp. by poison food technique; assay type: functional
Salmonella typhi = assay: Antimicrobial activity against Salmonella typhi by well diffusion method; assay type: functional, Salmonella enterica subsp. enterica serovar Typhi; details: Salmonella enterica
Aspergillus sp. = assay: Antimicrobial activity against Aspergillus sp. by poison food technique; assay type: functional
Escherichia coli = assay: Antimicrobial activity against Escherichia coli by well diffusion method; assay type: functional
Bacillus subtilis = assay: Antimicrobial activity against Bacillus subtilis by well diffusion method; assay type: functional

CN1C[C@H](C(=O)c2ccc(Cl)cc2)[C@H]2c3ccccc3OC[C@H]21
MIC (Shigella sp.): 25 µg/mL (≈ 76.3 µM) | MIC (Staphylococcus aureus): 20 µg/mL (≈ 61 µM) | MIC (Candida albicans): 45 µg/mL (≈ 137 µM) | MIC (Streptococcus pneumoniae): 25 µg/mL (≈ 76.3 µM) | MIC (Trichoderma): 40 µg/mL (≈ 122 µM) | MIC (Salmonella typhi): 10 µg/mL (≈ 30.5 µM) | MIC (Aspergillus sp.): 35 µg/mL (≈ 107 µM) | MIC (Escherichia coli): 10 µg/mL (≈ 30.5 µM) | MIC (Bacillus subtilis): 15 µg/mL (≈ 45.8 µM)

O=C1c2ccccc2CC[C@]12[C@H]1c3ccccc3OC[C@H]1N1Cc3ccccc3C[C@@H]12
MIC (Shigella sp.): 5 µg/mL (≈ 12.3 µM) | MIC (Staphylococcus aureus): 5 µg/mL (≈ 12.3 µM) | MIC (Candida albicans): 35 µg/mL (≈ 85.9 µM) | MIC (Streptococcus pneumoniae): 10 µg/mL (≈ 24.5 µM) | MIC (Trichoderma): 50 µg/mL (≈ 123 µM) | MIC (Salmonella typhi): 5 µg/mL (≈ 12.3 µM) | MIC (Aspergillus sp.): 25 µg/mL (≈ 61.3 µM) | MIC (Escherichia coli): 5 µg/mL (≈ 12.3 µM) | MIC (Bacillus subtilis): 5 µg/mL (≈ 12.3 µM)

O=C(c1ccc(Cl)cc1)[C@@H]1[C@H]2c3ccccc3OC[C@H]2N2Cc3ccccc3C[C@H]12
MIC (Shigella sp.): 20 µg/mL (≈ 48.1 µM) | MIC (Staphylococcus aureus): 5 µg/mL (≈ 12 µM) | MIC (Candida albicans): 20 µg/mL (≈ 48.1 µM) | MIC (Streptococcus pneumoniae): 15 µg/mL (≈ 36.1 µM) | MIC (Trichoderma): 45 µg/mL (≈ 108 µM) | MIC (Salmonella typhi): 15 µg/mL (≈ 36.1 µM) | MIC (Aspergillus sp.): 25 µg/mL (≈ 60.1 µM) | MIC (Escherichia coli): 10 µg/mL (≈ 24 µM) | MIC (Bacillus subtilis): 5 µg/mL (≈ 12 µM)

O=C1c2ccccc2CC[C@]12[C@H]1c3ccccc3OC[C@H]1N1CCC[C@@H]12
MIC (Shigella sp.): 75 µg/mL (≈ 217 µM) | MIC (Staphylococcus aureus): 65 µg/mL (≈ 188 µM) | MIC (Candida albicans): 95 µg/mL (≈ 275 µM) | MIC (Streptococcus pneumoniae): 55 µg/mL (≈ 159 µM) | MIC (Trichoderma): 110 µg/mL (≈ 318 µM) | MIC (Salmonella typhi): 60 µg/mL (≈ 174 µM) | MIC (Aspergillus sp.): 75 µg/mL (≈ 217 µM) | MIC (Escherichia coli): 50 µg/mL (≈ 145 µM) | MIC (Bacillus subtilis): 70 µg/mL (≈ 203 µM)

COC(=O)Nc1nc2ccccc2[nH]1 [CARBENDAZIM]
MIC (Candida albicans): 10 µg/mL (≈ 52.3 µM) | MIC (Trichoderma): 15 µg/mL (≈ 78.5 µM) | MIC (Aspergillus sp.): 15 µg/mL (≈ 78.5 µM)

O=C(c1ccc(Cl)cc1)[C@@H]1[C@H]2c3ccccc3OC[C@H]2N2CCC[C@H]12
MIC (Shigella sp.): 5 µg/mL (≈ 14.1 µM) | MIC (Staphylococcus aureus): 5 µg/mL (≈ 14.1 µM) | MIC (Candida albicans): 25 µg/mL (≈ 70.7 µM) | MIC (Streptococcus pneumoniae): 10 µg/mL (≈ 28.3 µM) | MIC (Trichoderma): 30 µg/mL (≈ 84.8 µM) | MIC (Salmonella typhi): 15 µg/mL (≈ 42.4 µM) | MIC (Aspergillus sp.): 25 µg/mL (≈ 70.7 µM) | MIC (Escherichia coli): 10 µg/mL (≈ 28.3 µM) | MIC (Bacillus subtilis): 5 µg/mL (≈ 14.1 µM)

CN(C)[C@@H]1C(O)=C(C(N)=O)C(=O)[C@@]2(O)C(O)=C3C(=O)c4c(O)cccc4[C@@](C)(O)[C@H]3C[C@@H]12 [TETRACYCLINE]
MIC (Shigella sp.): 15 µg/mL (≈ 33.8 µM) | MIC (Staphylococcus aureus): 15 µg/mL (≈ 33.8 µM) | MIC (Streptococcus pneumoniae): 20 µg/mL (≈ 45 µM) | MIC (Salmonella typhi): 25 µg/mL (≈ 56.3 µM) | MIC (Escherichia coli): 10 µg/mL (≈ 22.5 µM) | MIC (Bacillus subtilis): 10 µg/mL (≈ 22.5 µM)

O=C(c1ccc(Cl)cc1)[C@@H]1[C@H]2c3ccccc3OC[C@H]2N2CSC[C@H]12
MIC (Shigella sp.): 30 µg/mL (≈ 80.7 µM) | MIC (Staphylococcus aureus): 25 µg/mL (≈ 67.2 µM) | MIC (Candida albicans): 65 µg/mL (≈ 175 µM) | MIC (Streptococcus pneumoniae): 30 µg/mL (≈ 80.7 µM) | MIC (Trichoderma): 75 µg/mL (≈ 202 µM) | MIC (Salmonella typhi): 25 µg/mL (≈ 67.2 µM) | MIC (Aspergillus sp.): 70 µg/mL (≈ 188 µM) | MIC (Escherichia coli): 15 µg/mL (≈ 40.3 µM) | MIC (Bacillus subtilis): 20 µg/mL (≈ 53.8 µM)

O=C1c2ccccc2CC[C@]12[C@H]1c3ccccc3OC[C@H]1N1CSC[C@@H]12
MIC (Shigella sp.): 70 µg/mL (≈ 193 µM) | MIC (Staphylococcus aureus): 45 µg/mL (≈ 124 µM) | MIC (Candida albicans): 90 µg/mL (≈ 248 µM) | MIC (Streptococcus pneumoniae): 40 µg/mL (≈ 110 µM) | MIC (Trichoderma): 105 µg/mL (≈ 289 µM) | MIC (Salmonella typhi): 60 µg/mL (≈ 165 µM) | MIC (Aspergillus sp.): 75 µg/mL (≈ 206 µM) | MIC (Escherichia coli): 65 µg/mL (≈ 179 µM) | MIC (Bacillus subtilis): 55 µg/mL (≈ 151 µM)

CN1C[C@@]2(CCc3ccccc3C2=O)[C@H]2c3ccccc3OC[C@H]21
MIC (Shigella sp.): 45 µg/mL (≈ 141 µM) | MIC (Staphylococcus aureus): 20 µg/mL (≈ 62.6 µM) | MIC (Candida albicans): 75 µg/mL (≈ 235 µM) | MIC (Streptococcus pneumoniae): 60 µg/mL (≈ 188 µM) | MIC (Trichoderma): 105 µg/mL (≈ 329 µM) | MIC (Salmonella typhi): 55 µg/mL (≈ 172 µM) | MIC (Aspergillus sp.): 85 µg/mL (≈ 266 µM) | MIC (Escherichia coli): 25 µg/mL (≈ 78.3 µM) | MIC (Bacillus subtilis): 35 µg/mL (≈ 110 µM)

Source: ChEMBL document CHEMBL1287775, “Stereoselective synthesis of hexahydro-3-methyl-1-arylchromeno[3,4-b]pyrrole and its annulated heterocycles as potent antimicrobial agents for human pathogens” (2010)
